Key:
PRMT5 [1] = biological target: PRMT5 (Homo sapiens, UniProt O14744); settings: substrate E2-F-1; cited from earlier work
[2] = biological target: T1, PRMT5/MEP50 enzyme complex (Homo sapiens, UniProt O14744); test: in vitro biochemical assay: PRMT5/MEP50 enzyme complex with SAM and purified AR LBD (with or without ERG ETS domain); settings: AR LBD/PRMT5 and AR LBD/PRMT5/ETS reactions
T1 construct: purchased
Description: To test whether ERG is a substrate of PRMT5, we used 22Rv1 cells to express and immunoprecipitate ERG in the presence and absence of PRMT5. Using a recently generated antibody specific for symmetric dimethyl arginine modification, we verified ERG arginine methylation levels and only observed a faint band which was not altered following PRMT5 knockdown (data not shown). To confirm these findings, we performed in vitro biochemical assays in which we incubated increasing amounts of commercial PRMT5/MEP50 enzyme complex with the methyl donor S-Adenosyl-Methionine (SAM) and either the pointed (PNT) domain or ETS domain of ERG as possible substrates of PRMT5. As a measure of PRMT5 catalytic activity and usage of the methyl donor SAM for substrate methylation, we evaluated and quantified by mass spectrometry the amount of S-Adenosyl-Homocysteine (SAH) produced (data not shown). […] To investigate whether the ligand binding domain (LBD) of AR is a direct substrate of PRMT5, we performed a series of in vitro biochemical assays in which we incubated the PRMT5/MEP50 enzyme complex with the methyl donor S-Adenosyl-Methionine (SAM) and purified AR LBD. […]

PRMT5 [3] = settings: shRNAs disclosed in U.S. Patent Application No. 62/049,004; cited from earlier work

T1 sequence (O14744 whole entry, the tested form may be a part): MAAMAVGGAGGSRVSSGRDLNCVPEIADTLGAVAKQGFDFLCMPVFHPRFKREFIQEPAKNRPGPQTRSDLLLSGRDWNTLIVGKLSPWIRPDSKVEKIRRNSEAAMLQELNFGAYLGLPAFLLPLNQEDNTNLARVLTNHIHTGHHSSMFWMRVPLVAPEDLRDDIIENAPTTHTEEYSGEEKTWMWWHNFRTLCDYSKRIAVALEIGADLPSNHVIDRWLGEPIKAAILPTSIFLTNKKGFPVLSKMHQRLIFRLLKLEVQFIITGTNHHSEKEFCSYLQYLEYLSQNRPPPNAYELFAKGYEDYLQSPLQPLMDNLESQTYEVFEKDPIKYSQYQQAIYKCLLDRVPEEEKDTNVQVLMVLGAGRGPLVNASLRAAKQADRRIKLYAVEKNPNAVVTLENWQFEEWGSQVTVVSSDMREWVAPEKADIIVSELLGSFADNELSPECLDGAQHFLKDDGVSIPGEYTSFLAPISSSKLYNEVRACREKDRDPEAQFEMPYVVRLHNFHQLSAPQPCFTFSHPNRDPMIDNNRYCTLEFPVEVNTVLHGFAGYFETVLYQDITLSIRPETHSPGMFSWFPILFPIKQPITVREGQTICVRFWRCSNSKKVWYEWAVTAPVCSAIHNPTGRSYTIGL
T1 sequence (Q9BQA1 whole entry partner, the tested form may be a part): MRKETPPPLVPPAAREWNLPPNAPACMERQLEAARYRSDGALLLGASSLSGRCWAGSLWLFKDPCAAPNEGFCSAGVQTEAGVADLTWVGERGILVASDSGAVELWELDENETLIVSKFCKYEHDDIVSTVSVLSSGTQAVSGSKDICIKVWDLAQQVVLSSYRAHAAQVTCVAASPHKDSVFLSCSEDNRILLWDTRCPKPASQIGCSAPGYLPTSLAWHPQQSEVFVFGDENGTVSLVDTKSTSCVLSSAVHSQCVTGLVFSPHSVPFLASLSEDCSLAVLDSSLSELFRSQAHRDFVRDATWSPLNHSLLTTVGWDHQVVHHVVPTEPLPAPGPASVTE
Chain of PRMT5 (Homo sapiens, UniProt O14744) (O14744 whole entry, the tested form may be a part): as the sequence (O14744 whole entry, the tested form may be a part) above
Chain of PRMT5 (Homo sapiens, UniProt O14744) (Q9BQA1 whole entry partner, the tested form may be a part): as the sequence (Q9BQA1 whole entry partner, the tested form may be a part) above

Row | Compound | effectiveness of shRNA to PRMT5 (PRMT5 [3]) | other results
1 | Nc1ncnc2c1ncn2[C@@H]1O[C@H](C[C@@H](N)CC[C@H](N)C(=O)O)C(O)C1O (stereo in doubt) [Sinefungin, 5′-Deoxy-5′-(1,4-diamino-4-carboxybutyl)adenosine] | – | inhibition of PRMT5 activity (PRMT5 [1]): inhibits PRMT5 activity
2 | O=C(Nc1ccc2c(O)cc(S(=O)(=O)O)cc2c1)Nc1ccc2c(O)cc(S(=O)(=O)O)cc2c1 [AMI-1] | – | AR mono-methylation levels ([2]; arginine mono-methyl antibody): completely blocked; SAH production ([2]; measured by mass spectrometry): completely blocked
3 | sh4736: PRMT5 shRNA, target sequence GCGGATAAAGCTGTATGCTGT (SEQ ID NO: 11) (the letters are possibly those of the target site) | most effective | –
4 | sh4737: PRMT5 shRNA, target sequence GCCAAGTGACCGTAGTCTCAT (SEQ ID NO: 15) | most effective | –
5 | sh4738: PRMT5 shRNA, target sequence GCCATCCCAACAGAGATCCTA (SEQ ID NO: 8) (the letters are possibly those of the target site) | also effective | –
